Laboratory results taken from patent US4599331A, “Etianic acids as antiangiogenics” (Syntex (U.S.A.) Inc., priority 1984, dated 1986).
Values joined by “and” are separate entries in the source; they are usually repeats but may differ in a detail not shown here. Identical values can stand only once. Like-named read-outs stand apart in the source and are kept apart here.

What was measured:
Epidermal Growth Factor = assay: hamster cheek pouch (HCP) angiogenesis inhibition, EGF stimulus; format: in vivo, Male Syrian Golden hamsters; details: 10 μg EGF; for HCP % Inhibition Stimulus EGF: Table 2, compounds given daily at 0.4 mg/kg; for % Inhibition HCP Stimulus Epidermal Growth Factor: Table 1, between 0.5 and 4 mg/kg s.c. daily, each number independent result, average of six animals
Procedure: (§1) Each compound of the series was also tested for anti-angiogenic activity by an in vivo test that measured vascularization in a hamster's cheek pouch in response to either an angiogenic polypeptide growth factor, epidermal growth factor (EGF) or an induced […].
(§2) In this example, the in vivo angiogenesis inhibition activity of etianic acid esters was tested. Male Syrian Golden hamsters, weighing between 120 g and 150 g were anaesthetized by intraperitoneal (I.P.) injection of a rodent anaesthetic mixture consisting of 50 mg/kg ketamine hydrochloride, 5 mg/kg xylazine and 1 mg/kg acepromazine. The left cheek pouch of each animal was everted with a pincet and pinned down to a plexiglass-rubber stage and observed through a Zeiss stereomicroscope. 10 μg of EGF or 3×10^5 Hamster Melanoma RPM1 1846 tumor cells in 10 μl Cibachrome Blue agarose (Amicon) were injected subcutaneously in the left lower quadrant of the pouch with a Hamilton syringe.
(§3) The pouch was then reinserted and animals were kept under observation until recovered from anaesthesia.
(§4) The animals were dosed daily with one test compound, starting one day before stimulus injection and continuing until observation. The test compounds were dissolved in a minimum volume of ethanol and diluted in sterile phosphate buffer solution. […]
(§5) Either five days or twelve days after the EGF or tumor cell injection, animals were anaesthetized by I.P. injection of the rodent anaesthetic mixture. The pouch was everted on the stage and examined under the stereomicroscope. Pictures were taken with a 35 mm using Kodak Tungsten 50 professional films.
(§6) The following subjective scoring was used for evaluating the photographs:
(§7) 1: minimal branching of vessels in the vicinity of injection site.
(§8) 2: new vessels reach injection site, area involved is minimal (<50% of area surrounding injection site).
(§9) 3: many vessels reach and cross injection site, new vessels are tortuous, (>50% of area surrounding injection site).
(§10) 4: "full blown", many tortuous vessels, leakages, hemorrhages, 100% of area around injection site, invasion of new vessels into non-injected areas.
(§11) Results are expressed as the mean of the score. The results are shown in Tables 1 and 2 are percent inhibition of HCP Stimulus.

[1] = system: Hamster Melanoma RPM1 1846 tumor cells; assay: hamster cheek pouch (HCP) angiogenesis inhibition, 1846 tumor cell stimulus; format: in vivo, Male Syrian Golden hamsters; details: 3×10^5 tumor cells; for % Inhibition HCP Stimulus 1846: Table 1, between 0.5 and 4 mg/kg s.c. daily, each number independent result, average of six animals; for HCP % Inhibition Stimulus 1846: Table 2, compounds given daily at 0.4 mg/kg
Procedure: as §1, §2, §3, §4, §5, §6, §7, §8, §9, §10
(§12) In the case of the tumor, tumor size was also determined. (See Table 4)
as §11

[2] = system: alkaline phosphatase (APb); assay: alkaline phosphatase (APb) induction in LE II cells; format: cell-based, mouse; details: for Emax: Mus musculus, Table 1, about 65 hours, relative to dexamethasone = 1, read-out: Efficacy (DEX = 1) Alk P
Procedure: This is another standard test for glucocorticoid activity.
LE II cells were grown in DMEM plus 10% FCS, at 37° C., in a 10% carbon dioxide atmosphere. Confluent monolayers of cells were trypsinized and seeded at a 1:15 dilution into 6-well Costar cluster dishes. […] In all experiments, DEX, at concentrations of 10^-9 to 10^-6 M, was added to some of the wells as a positive control.
Cell monolayers were washed with PBS and harvested by scraping with a rubber policeman into 400 μl of a buffer of 20 mM Tris-HCl at pH 7.4; 2 mM MgCl2; and 150 mM NaCl together with 1% Triton X-100. Samples were transferred into 1.5 ml Eppendorf centrifuge tubes and placed on ice. The tubes were first vortexed and then centrifuged in the Eppendorf minicentrifuge for 2 minutes. Duplicate 100 μl aliquots of supernatant were placed into 12×75 mm glass test tubes for determination of APb activity, while the rest was saved for protein determination. […] The tubes were incubated in a 37° C. water bath for between 20 to 50 minutes, depending on the activity of the samples. The APb reaction was terminated by the addition of 0.5 ml of […]. The tubes were mixed and 200 μl portions from each tube were transferred in triplicate to a 96 well microtiter plate. The OD410 nm of each well was then determined using a Dynatech plate reader.
[…] of the cell supernatant were transferred to 96 well microtiter plates for protein determination by a modification of the Lowry method. […] The plates were shaken for 1 hour and then the OD630 was determined using a Dynatech plate reader. The protein content for each sample was calculated by comparing the average OD630 reading with those obtained for a bovine serum albumin standard curve.
The alkaline phosphatase activity of in each sample was expressed as μmoles product formed per minute per mg protein in the Alk P column of Tables 1 and 2. Results are expressed as the induction ability of a compound as compared to dexamethasone.

[3] = system: tyrosine aminotransferase (TAT); assay: tyrosine aminotransferase (TAT) induction in HTC cells; format: cell-based, rat; details: for Emax: from 10^-6 M down, relative to dexamethasone = 1, read-out: Efficacy (DEX = 1) TAT
Procedure: In this example, tyrosine aminotransferase (TAT) activity was determined by a spectrophotometric assay. This enzyme catalyzes the conversion of tyrosine to p-hydroxyphenylpyruvate. This example is a standard in vitro test for glucocorticoid activity.
Addition of base caused the conversion of p-hydroxyphenylpyruvate to p-hydroxybenzaldehyde, which was quantitatively measured by absorbance at 331 nm. HTC cells, the target cells for the compound tested were grown in DMEM+10% FCS. Subconfluent cell cultures were incubated with test compounds in 6 well Costar dishes for 24 or 48 hours. The cells were incubated in either serum-free DMEM or DMEM containing 10% FCS previously filtered over activated charcoal. The cells were harvested in PBS using a rubber policeman, then washed once in PBS by centrifugation and resuspended in a 0.3 ml lysis buffer of 10 mM Tris, 10 mM EDTA and 0.25M sucrose at pH 7.4. The cells were then lysed by three cycles of freeze-thawing using dry ice and a 37° C. waterbath and the cells debris was pelleted by centrifugation for 2 min at 12,000 9 in an Eppendorf centrifuge.
The supernatant was used for a protein determination using either E+K stain or BioRad protein assay kit and TAT activity. 0.1 ml TAT buffer having 50 mM KH2 PO4, 1 mM EDTA, 0.1 mM Dithiothereitol (DTT), and 5 mg/ml BSA at pH 7.6 and 0.1 ml cell extract were mixed in glass tubes. A prewarmed mixture of 200 parts of a 2.3 mg/ml tyrosine solution in 0.05M phosphate buffer, 100 parts 0.125M KH2 PO4, 10 parts of a 0.92 mg/ml and ketoglutarate solution and 1 part of a 0.04 mg/ml pyridoxalphosphate solution had been previously made up. […] of the prewarmed mixture was added to each tube and allowed to react at 37° C. for 15 min. The addition of 0.1 ml 7N […] stopped the reaction. The mixture was then immediately vortexed.
Aldehyde formation was allowed to proceed at 37° C. for 30 min. The amound of aldehyde formed was determined by UV spectroscopic means. Absorbance was read at 331 nm using a solution composed of 0.1 ml TAT buffer, 0.1 ml lysis buffer, 0.7 ml reaction mixture and 0.1 ml 7N KOH as a blank. Optical Density values are linearily corrected for protein content.
As the absolute amount of enzyme induction varies between experiments, results are expressed as percent of the maximal induction obtained with dexamethasone, which was run as a standard in each assay.
In this series, compounds were assayed from 10^-6 M down. Results are expressed in the TAT column of tables 1, and 2 as the induction ability of a compound as compared to dexamethasone; a compound may either be a partial inducer or a superinducer.

[4] = system: Hamster Melanoma RPM1 1846 tumor cells; assay: Inhibition of tumor growth (2 week assay); format: in vivo, Male Syrian Golden hamsters; details: Table 3, dose 0.8 mg/kg; for Angiogenesis score: mean of score 0 (no new vessels) to 4 (full blown), untreated 3.1 [A], 2.9 [B]; for Tumor area Mn (mm^2): untreated 40.7 ± 16.2 [A], 27.5 ± 15.3 [B]
Procedure: as §2, §3
The animals were dosed daily with one test compound, starting one day before stimulus injection and continuing until observation. The test compounds were dissolved in a minimum volume of ethanol and diluted in sterile phosphate buffer solution. Then between 0.5 and 4 mg/kg of the test compound was injected subcutaneously.
as §5, §6, §7, §8, §9, §10, §12, §11

[5] = Rattus norvegicus, Table 1, 24 or 48 hours
[6] = Rattus norvegicus, Table 2, 24 or 48 hours

CCC(=O)O[C@]1(C(=O)SC)[C@H](C)C[C@H]2[C@@H]3CCC4=CC(=O)C=C[C@]4(C)[C@@]3(F)C(O)C[C@@]21C (stereo partly shown) [compound 15]
HCP % Inhibition Stimulus EGF (Epidermal Growth Factor): 30%

CCC(=O)O[C@]1(C(=O)OC)[C@@H](C)C[C@H]2[C@@H]3CC(F)C4=CC(=O)C=C[C@]4(C)[C@@]3(F)[C@@H](O)C[C@@]21C (stereo partly shown) [compound 2]
% Inhibition HCP Stimulus 1846 [1]: 33% and 35%
Emax [2]: 90%
% Inhibition HCP Stimulus Epidermal Growth Factor (Epidermal Growth Factor): 100%
Emax [3, 5]: 80%
Angiogenesis % Inh. [4]: 35%
Tumor area % (inhibition of tumor growth) [4]: 58%
Angiogenesis score [4]: 1.9
Tumor area Mn (mm^2) [4]: 11.6 ± 10.3 mm^2

CCCC(=O)O[C@]1(C(=O)SC)[C@@H](C)C[C@H]2[C@@H]3CCC4=CC(=O)C=C[C@]4(C)[C@@]3(F)C(O)C[C@@]21C (stereo partly shown) [compound 12]
HCP % Inhibition Stimulus EGF (Epidermal Growth Factor): 37%
Emax [3, 6]: 130%

CCCC(=O)O[C@]1(C(=O)SC)[C@H](C)C[C@H]2[C@@H]3CC(F)C4=CC(=O)C=C[C@]4(C)[C@@]3(F)C(O)C[C@@]21C (stereo partly shown) [compound 18]
HCP % Inhibition Stimulus 1846 [1]: 16%
Emax [3, 6]: 130%

COC(=O)[C@@]1(OC=O)[C@H](C)C[C@H]2[C@@H]3CC(F)C4=CC(=O)C=C[C@]4(C)[C@@]3(F)[C@@H](O)C[C@@]21C (stereo partly shown) [compound 5]
% Inhibition HCP Stimulus Epidermal Growth Factor (Epidermal Growth Factor): -25%

CCCCC(=O)O[C@]1(C(=O)OC)[C@H](C)C[C@H]2[C@@H]3CC(F)C4=CC(=O)C=C[C@]4(C)[C@@]3(F)[C@@H](O)C[C@@]21C (stereo partly shown) [compound 10]
% Inhibition HCP Stimulus 1846 [1]: 24%
Emax [2]: 70%
% Inhibition HCP Stimulus Epidermal Growth Factor (Epidermal Growth Factor): 100%
Emax [3, 5]: 90%
Angiogenesis % Inh. [4]: 23%
Tumor area % (inhibition of tumor growth) [4]: 45%
Angiogenesis score [4]: 2.4
Tumor area Mn (mm^2) [4]: 22.5 ± 13.7 mm^2

CCCC(=O)O[C@]1(C(=O)SC)[C@@H](C)C[C@H]2[C@@H]3CC(F)C4=CC(=O)C=C[C@]4(C)[C@@]3(F)[C@@H](O)C[C@@]21C (stereo partly shown) [compound 13]
HCP % Inhibition Stimulus 1846 ([1]; 0.4 mg/kg): 40% and 53% and 45%
HCP % Inhibition Stimulus EGF (Epidermal Growth Factor; 0.4 mg/kg): 94% and 84%
Emax [3, 6]: 90%
Angiogenesis % Inh. [4]: 42%
Tumor area % (inhibition of tumor growth) [4]: 78%
Angiogenesis score [4]: 1.8
Tumor area Mn (mm^2) [4]: 9.1 ± 3 mm^2

CCC(=O)O[C@]1(C(=O)SC)[C@H](C)C[C@H]2[C@@H]3CC(F)C4=CC(=O)C=C[C@]4(C)[C@@]3(F)C(O)C[C@@]21C (stereo partly shown) [compound 16]
HCP % Inhibition Stimulus 1846 ([1]; 0.4 mg/kg): 25% and 35%
HCP % Inhibition Stimulus EGF (Epidermal Growth Factor): 46%
Emax [3, 6]: 120%

CCCCC(=O)O[C@]1(C(=O)SC)[C@@H](C)C[C@H]2[C@@H]3CC(F)C4=CC(=O)C=C[C@]4(C)[C@@]3(F)C(O)C[C@@]21C (stereo partly shown) [compound 14]
HCP % Inhibition Stimulus 1846 [1]: 16%
HCP % Inhibition Stimulus EGF (Epidermal Growth Factor; 0.4 mg/kg): 22% and 42%
Emax [3, 6]: 60%

C[C@@H]1C[C@H]2[C@@H]3CCC4=CC(=O)C=C[C@]4(C)[C@@]3(F)[C@@H](O)C[C@]2(C)[C@@]1(O)C(=O)CO [Dexamethasone, dexamethasone, reference compound]
incubation time to maximum induction of alkaline phosphatase activity ([2]; preliminary experiments): 48 to 72 h
concentration inducing maximal TAT activity [3]: 10^-7 M
EC50 ([3]; Rattus norvegicus): ~20 nM

COC(=O)[C@@]1(OC(C)=O)[C@H](C)C[C@H]2[C@@H]3CC(F)C4=CC(=O)C=C[C@]4(C)[C@@]3(F)[C@@H](O)C[C@@]21C (stereo partly shown) [compound 6]
% Inhibition HCP Stimulus Epidermal Growth Factor (Epidermal Growth Factor): 23%
Emax [3, 5]: 70%

CCC(=O)O[C@]1(C(=O)SC)[C@@H](C)C[C@H]2[C@@H]3CC(F)C4=CC(=O)C=C[C@]4(C)[C@@]3(F)C(O)C[C@@]21C (stereo partly shown) [compound 11]
HCP % Inhibition Stimulus 1846 [1]: 28%
HCP % Inhibition Stimulus EGF (Epidermal Growth Factor): 100%
Emax [3, 6]: 140%
